Organism: Rattus norvegicus
Assay: DrugMatrix - Regimen: Daily Repeat
Format: toxicity, organism-based, Sprague-Dawley
Set-up: regimen Daily Repeat, gender Male, age 6-8 weeks
Conditions: in vivo, iv, vehicle 100 % SALINE; for ABSOLUTE BASOPHIL / ABSOLUTE EOSINOPHIL / ABSOLUTE LYMPHOCYTE / ABSOLUTE MONOCYTE / ABSOLUTE SEGMENTED NEUTROPHIL / BASOPHIL / EOSINOPHIL / ERYTHROCYTE COUNT / HEMATOCRIT / HEMOGLOBIN / LEUKOCYTE COUNT / LYMPHOCYTE / MEAN CORPUSCULAR HEMOGLOBIN / MEAN CORPUSCULAR HEMOGLOBIN CONCENTRATION / MEAN CORPUSCULAR VOLUME / MONOCYTE / NEUTROPHIL / NUCLEATED RED BLOOD CELLS / PLATELET COUNT: tissue Blood; for ALANINE AMINOTRANSFERASE / ALBUMIN / ALKALINE PHOSPHATASE / ASPARTATE AMINOTRANSFERASE / BLOOD UREA NITROGEN / CARBON DIOXIDE / CHLORIDE / CHOLESTEROL / CREATINE PHOSPHOKINASE / CREATININE / GLUCOSE / LACTATE DEHYDROGENASE / LIPASE / PHOSPHORUS / POTASSIUM / SODIUM / TOTAL BILIRUBIN / TOTAL PROTEIN / URIC ACID: tissue Plasma
[1] = 100 mg/kg, 72 h, dose level Low, time 3 day
[2] = 100 mg/kg, 120 h, dose level Low, time 5 day
[3] = 755 mg/kg, 72 h, dose level High, time 3 day
[4] = 755 mg/kg, 120 h, dose level High, time 5 day

O=S(=O)([O-])CCS.[Na+] [MESNA]
ABSOLUTE BASOPHIL [1]: 0 CELLS/uL | ABSOLUTE EOSINOPHIL [1]: 43.67 CELLS/uL | ABSOLUTE LYMPHOCYTE [1]: 13323 CELLS/uL | ABSOLUTE MONOCYTE [1]: 251.67 CELLS/uL | ABSOLUTE SEGMENTED NEUTROPHIL [1]: 848.33 CELLS/uL | BASOPHIL [1]: 0% | EOSINOPHIL [1]: 0.33% | ERYTHROCYTE COUNT [1]: 6 x10E6/uL | HEMATOCRIT [1]: 37.23% | HEMOGLOBIN [1]: 13.77 G/DL | LEUKOCYTE COUNT [1]: 14.47 x10E3/uL | LYMPHOCYTE [1]: 92% | MEAN CORPUSCULAR HEMOGLOBIN [1]: 22.97 pg | MEAN CORPUSCULAR HEMOGLOBIN CONCENTRATION [1]: 36.97 G/DL | MEAN CORPUSCULAR VOLUME [1]: 62.07 fL | MONOCYTE [1]: 1.67% | NEUTROPHIL [1]: 6% | NUCLEATED RED BLOOD CELLS [1]: 0.67 /100WBC | PLATELET COUNT [1]: 1218 x10E3/uL | ALANINE AMINOTRANSFERASE [1]: 53.67 u/L | ALBUMIN [1]: 4.3 G/DL | ALKALINE PHOSPHATASE [1]: 358.33 u/L | ASPARTATE AMINOTRANSFERASE [1]: 87 u/L | BLOOD UREA NITROGEN [1]: 15 mg/dL | CARBON DIOXIDE [1]: 26 mmol/L | CHLORIDE [1]: 102.33 MEQ/L | CHOLESTEROL [1]: 79.33 mg/dL | CREATINE PHOSPHOKINASE [1]: 501.33 u/L | CREATININE [1]: 0.29 mg/dL | GLUCOSE [1]: 159.67 mg/dL | LACTATE DEHYDROGENASE [1]: 166 u/L | LIPASE [1]: 12 u/L | PHOSPHORUS [1]: 12.7 mg/dL | POTASSIUM [1]: 6.86 MEQ/L | SODIUM [1]: 147.77 MEQ/L | TOTAL BILIRUBIN [1]: 0.2 mg/dL | TOTAL PROTEIN [1]: 6.23 G/DL | URIC ACID [1]: 1.63 mg/dL | ABSOLUTE BASOPHIL [2]: 0 CELLS/uL | ABSOLUTE EOSINOPHIL [2]: 120.33 CELLS/uL | ABSOLUTE LYMPHOCYTE [2]: 14708 CELLS/uL | ABSOLUTE MONOCYTE [2]: 625.67 CELLS/uL | ABSOLUTE SEGMENTED NEUTROPHIL [2]: 879.33 CELLS/uL | BASOPHIL [2]: 0% | EOSINOPHIL [2]: 0.67% | ERYTHROCYTE COUNT [2]: 5.55 x10E6/uL | HEMATOCRIT [2]: 36.7% | HEMOGLOBIN [2]: 13.53 G/DL | LEUKOCYTE COUNT [2]: 16.33 x10E3/uL | LYMPHOCYTE [2]: 90.33% | MEAN CORPUSCULAR HEMOGLOBIN [2]: 24.4 pg | MEAN CORPUSCULAR HEMOGLOBIN CONCENTRATION [2]: 36.9 G/DL | MEAN CORPUSCULAR VOLUME [2]: 66.07 fL | MONOCYTE [2]: 3.67% | NEUTROPHIL [2]: 5.33% | NUCLEATED RED BLOOD CELLS [2]: 0 /100WBC | PLATELET COUNT [2]: 1137 x10E3/uL | ALANINE AMINOTRANSFERASE [2]: 56.67 u/L | ALBUMIN [2]: 4.33 G/DL | ALKALINE PHOSPHATASE [2]: 375 u/L | ASPARTATE AMINOTRANSFERASE [2]: 83.67 u/L | BLOOD UREA NITROGEN [2]: 15.33 mg/dL | CARBON DIOXIDE [2]: 22.67 mmol/L | CHLORIDE [2]: 102.67 MEQ/L | CHOLESTEROL [2]: 87.33 mg/dL | CREATINE PHOSPHOKINASE [2]: 282.67 u/L | CREATININE [2]: 0.27 mg/dL | GLUCOSE [2]: 153.67 mg/dL | LACTATE DEHYDROGENASE [2]: 140.67 u/L | LIPASE [2]: 11 u/L | PHOSPHORUS [2]: 11.4 mg/dL | POTASSIUM [2]: 6.06 MEQ/L | SODIUM [2]: 146.67 MEQ/L | TOTAL BILIRUBIN [2]: 0.3 mg/dL | TOTAL PROTEIN [2]: 6.4 G/DL | URIC ACID [2]: 1.07 mg/dL | ABSOLUTE BASOPHIL [3]: 0 CELLS/uL | ABSOLUTE EOSINOPHIL [3]: 65.67 CELLS/uL | ABSOLUTE LYMPHOCYTE [3]: 13484.33 CELLS/uL | ABSOLUTE MONOCYTE [3]: 234.33 CELLS/uL | ABSOLUTE SEGMENTED NEUTROPHIL [3]: 1215.67 CELLS/uL | BASOPHIL [3]: 0% | EOSINOPHIL [3]: 0.33% | ERYTHROCYTE COUNT [3]: 5.37 x10E6/uL | HEMATOCRIT [3]: 34.63% | HEMOGLOBIN [3]: 12.87 G/DL | LEUKOCYTE COUNT [3]: 15 x10E3/uL | LYMPHOCYTE [3]: 90% | MEAN CORPUSCULAR HEMOGLOBIN [3]: 23.93 pg | MEAN CORPUSCULAR HEMOGLOBIN CONCENTRATION [3]: 37.17 G/DL | MEAN CORPUSCULAR VOLUME [3]: 64.43 fL | MONOCYTE [3]: 1.67% | NEUTROPHIL [3]: 8% | NUCLEATED RED BLOOD CELLS [3]: 0 /100WBC | PLATELET COUNT [3]: 960.33 x10E3/uL | ALANINE AMINOTRANSFERASE [3]: 55.33 u/L | ALBUMIN [3]: 4.07 G/DL | ALKALINE PHOSPHATASE [3]: 330.67 u/L | ASPARTATE AMINOTRANSFERASE [3]: 74.33 u/L | BLOOD UREA NITROGEN [3]: 17.33 mg/dL | CARBON DIOXIDE [3]: 25.67 mmol/L | CHLORIDE [3]: 102 MEQ/L | CHOLESTEROL [3]: 76 mg/dL | CREATINE PHOSPHOKINASE [3]: 342.67 u/L | CREATININE [3]: 0.21 mg/dL | GLUCOSE [3]: 165.33 mg/dL | LACTATE DEHYDROGENASE [3]: 152.67 u/L | LIPASE [3]: 9.67 u/L | PHOSPHORUS [3]: 12.4 mg/dL | POTASSIUM [3]: 6.83 MEQ/L | SODIUM [3]: 143.67 MEQ/L | TOTAL BILIRUBIN [3]: 0.13 mg/dL | TOTAL PROTEIN [3]: 6.23 G/DL | URIC ACID [3]: 1.8 mg/dL | ABSOLUTE BASOPHIL [4]: 0 CELLS/uL | ABSOLUTE EOSINOPHIL [4]: 0 CELLS/uL | ABSOLUTE LYMPHOCYTE [4]: 18795 CELLS/uL | ABSOLUTE MONOCYTE [4]: 498.33 CELLS/uL | ABSOLUTE SEGMENTED NEUTROPHIL [4]: 1040 CELLS/uL | BASOPHIL [4]: 0% | EOSINOPHIL [4]: 0% | ERYTHROCYTE COUNT [4]: 5.72 x10E6/uL | HEMATOCRIT [4]: 34.77% | HEMOGLOBIN [4]: 13.27 G/DL | LEUKOCYTE COUNT [4]: 20.33 x10E3/uL | LYMPHOCYTE [4]: 92.33% | MEAN CORPUSCULAR HEMOGLOBIN [4]: 23.2 pg | MEAN CORPUSCULAR HEMOGLOBIN CONCENTRATION [4]: 38.2 G/DL | MEAN CORPUSCULAR VOLUME [4]: 60.87 fL | MONOCYTE [4]: 2.67% | NEUTROPHIL [4]: 5% | NUCLEATED RED BLOOD CELLS [4]: 0 /100WBC | PLATELET COUNT [4]: 1209.33 x10E3/uL | ALANINE AMINOTRANSFERASE [4]: 54.33 u/L | ALBUMIN [4]: 4.23 G/DL | ALKALINE PHOSPHATASE [4]: 290 u/L | ASPARTATE AMINOTRANSFERASE [4]: 83.67 u/L | BLOOD UREA NITROGEN [4]: 19.33 mg/dL | CARBON DIOXIDE [4]: 24.33 mmol/L | CHLORIDE [4]: 105.67 MEQ/L | CHOLESTEROL [4]: 75.33 mg/dL | CREATINE PHOSPHOKINASE [4]: 517 u/L | CREATININE [4]: 0.21 mg/dL | GLUCOSE [4]: 155 mg/dL | LACTATE DEHYDROGENASE [4]: 338.33 u/L | LIPASE [4]: 9.67 u/L | PHOSPHORUS [4]: 12.17 mg/dL | POTASSIUM [4]: 7.45 MEQ/L | SODIUM [4]: 147 MEQ/L | TOTAL BILIRUBIN [4]: 0.17 mg/dL | TOTAL PROTEIN [4]: 6.23 G/DL | URIC ACID [4]: 2.07 mg/dL

From ChEMBL document CHEMBL3885881, “DrugMatrix”
